From patent US9637519B2, “Peptide for inducing mast cell-specific apoptosis and use thereof” (CAREGEN CO., LTD., priority 2013, dated 2017) come the findings set out here.

Like-named read-outs stand apart in the source and are kept apart here. Ends that are not written are not given here.

In one series the test system is RBL-2H3 cells. As to the kind of experiment: Histamine secretion from IgE/HSA-stimulated mast cells (histamine ELISA). The format is cell-based, rat. To be noted: IgE 1 μg/ml sensitized, HSA 1 μg/ml stimulated. As to the method:
In the culture of RBL-2H3 cells sensitized by IgE treatment (1 μg/ml) for 16 h, the existing culture medium was removed and exchanged with a tyrode buffer. […] In addition, in order to measure the activity of beta-hexosaminidase, the degree of color development after a reaction with a substrate, p-N-acetyl-glucosamine (NAG; SIGMA, USA) was determined by measuring the absorbance at 405 nm using a spectrophotometer (see FIG. 3b).
For orientation: An ELISA detects its analyte on a solid surface through an enzyme-linked reagent.

The next series concerns p38. To be noted: IgE-sensitized cells; peptide 10 μg/ml 20 min; HSA 1 μg/ml 5 or 30 min. As to the method:
(§1) The cells were placed in a 60 mm-sized plate for culture (SPL, Korea) at 1.5×10^6 cells per well, and then cultured for 24 h under conditions of 37° C. and 5% CO2. After that, the cells were treated with IgE (1 μg/ml) for 24 h for cell sensitization, and then a blank sample for determining a reference and the synthetic peptide were dissolved in 10% distilled water in a sterile state, followed by treatment with a concentration of 10 μg/ml for 20 min, and then the cells were stimulated by treatment with 1 μg/ml allergen HSA for 5 min or 30 min.

The test system of the next series is ERK1/2. To be noted: IgE-sensitized cells; peptide 10 μg/ml 20 min; HSA 1 μg/ml 5 or 30 min. As to the method:
as §1

The subject of another series is Lyn. As to conditions: IgE-sensitized cells; peptide treatment 20 min; HSA 1 μg/ml.
The test system of series [1] is RBL-2H3 rat mast cell lines. To be noted: 10 μg/ml treatment group, 27 h. As to the method: First, RBL-2H3 rat mast cell lines (Korean Cell Line Bank, Korea) were cultured in Dulbecco's modified Eagle's medium (DMEM, Gibco, U.S.A.) supplemented with 10% fetal bovine serum (FBS, Sigma) using a flask for tissue culture (SPL, Korea). The cultured cell lines were detached from the bottom of the culture container using a 1% trypsin solution, and then only cell deposits were collected by centrifugation. The cell deposits were again suspended in DMEM culture liquid, placed in each well of a 6-well plate for tissue culture (SPL, Korea) at 1×10^5 cells per well, and then cultured for 24 h under conditions of 37° C. and 5% CO2. After 24 h, the medium was exchanged with the same culture liquid. […] After the completion of the culture, the culture supernatant fluid was removed, the cultured cell lines were detached from the bottom of the culture container using a 1% trypsin solution, and then only cell precipitates were collected by centrifugation. The cells were stained using an Annexin V-PI staining kit (BD pharmigen), and then FL1 and FL2 intensities were measured using flow cytometry, FACS. Annexin V-positive apoptotic cells were counted (see FIG. 2a).

For the next series, the system named is NIH3T3 cells. To be noted: NIH3T3 fibroblasts; 1 and 10 μg/ml; 27 h; MTT. As for the experimental part:
(§2) Meanwhile, in order to investigate whether or not the apoptosis effect is a mast cell-specific reaction, the cytotoxicity test was conducted using HaCaT cells as keratinocytes and NIH3T3 cells as fibroblasts. The cells were placed in a 96-well plate for tissue culture at 5×10^3 cells per well, and then cultured for 24 h under conditions of 37° C. and 5% CO2. After 24 h, the medium was exchanged with the same culture liquid. A blank sample for determining a reference and the synthetic peptide were dissolved in 10% distilled water in a sterile state, followed by culturing at concentrations of 1 μg/ml and 10 μg/ml for 27 h under the same conditions as above. After the completion of the culture, the culture liquid was treated with MTT reagent (5 mg/ml; SIGMA, USA) with 1/10 volume and further cultured for 4 h, and the generated formazan was dissolved in DMSO and the absorbance was measured at 540 nm using a spectrophotometer (Molecular devices, USA) (see FIG. 2c).

For another series, the system named is HaCaT cells. As to conditions: HaCaT human keratinocytes; 1 and 10 μg/ml; 27 h; MTT. As to the method: as §2
In a further series the test system is Bcl2. To be noted: 1 and 10 μg/ml, 27 h.
The nature of series [2]: Thermal stability at 37° C. in phosphate buffered saline, HPLC quantification. The series is classed as physicochemical. As to conditions: 0.1 mg/ml in PBS, days 0-70 (FIG. 5). As for the experimental part:
1 ml of the prepared solution was placed in each glass vial, and allowed to stand at 37° C. The solution standing at 37° C. was sampled on days 0, 5, 10, 20, 30, 50, and 70. Centrifugation for each day was conducted to remove modified peptides or proteins, and the supernatant was taken. HPLC was used for quantification (see FIG. 5).

The target of a further series is T1, FcεRI receptor (Rattus norvegicus, UniProt P12371+P13386+P20411).
T1 construct: FcεRI receptor, which is present on surfaces of mast cells; endogenous in cells; host or cells: RBL-2H3 rat mast cell line
T1 sequence (P12371 24-245): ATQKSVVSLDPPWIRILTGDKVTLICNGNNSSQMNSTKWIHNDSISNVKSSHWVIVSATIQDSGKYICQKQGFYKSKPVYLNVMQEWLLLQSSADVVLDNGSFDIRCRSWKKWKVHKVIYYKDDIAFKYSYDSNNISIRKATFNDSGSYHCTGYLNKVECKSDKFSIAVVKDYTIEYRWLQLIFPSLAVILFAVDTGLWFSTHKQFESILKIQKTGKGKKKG
T1 sequence (P13386 1-243): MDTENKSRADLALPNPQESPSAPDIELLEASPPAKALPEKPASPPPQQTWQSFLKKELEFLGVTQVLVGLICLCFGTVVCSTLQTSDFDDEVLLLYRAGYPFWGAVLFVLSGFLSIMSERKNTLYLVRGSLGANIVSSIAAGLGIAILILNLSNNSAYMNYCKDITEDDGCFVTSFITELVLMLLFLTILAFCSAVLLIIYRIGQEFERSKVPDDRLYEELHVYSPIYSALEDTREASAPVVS
T1 sequence (P20411 19-86): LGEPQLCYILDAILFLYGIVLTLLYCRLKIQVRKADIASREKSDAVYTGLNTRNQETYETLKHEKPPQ
As to the kind of experiment: Immunoprecipitation with IgE antibody and western blotting of FcεRI gamma sub-chain (receptor complex formation). The series is classed as cell-based. To be noted: IgE-sensitized cells; peptide 10 μg/ml; HSA stimulation 10 min. As for the experimental part:
After the first separation using immunoprecipitation, western blotting was conducted using FcεRI gamma sub-chain antibody to confirm the protein amount of the gamma sub-chains binding to IgE (see FIG. 4c).
(A western blot detects proteins with antibodies after separation by electrophoresis.)

Setting [3] is: activated mast cells (IgE and HSA treatment).

On to `O=c1c(O)c(-c2ccc(O)c(O)c2)oc2cc(O)cc(O)c12` [quercetin, reference compound], for which, in the series with RBL-2H3 cells (positive control 40 μM), the “secretion amount of histamine” value is given as “reduces the secretion amount of histamine”.
For the molecule “WVPYQARVPYPR [peptide of the present invention]”, the “phosphorylation of p38” value in the series on p38 is on record as “efficacy of inhibiting the phosphorylation”. For the same molecule, the “phosphorylation of ERK1/2” value with ERK1/2 is given as “efficacy of inhibiting the phosphorylation”. Also, the “phosphorylation of Lyn” value in the series on Lyn was “significantly inhibited in a concentration-dependent manner”. Besides, the “secretion amount of histamine” value in the series with RBL-2H3 cells (peptide 1 and 10 μg/ml) is on record as “activity to reduce the secretion amount of histamine in a concentration-dependent manner”. Also, the “Annexin V-positive cell count (apoptosis)” value in [1] (setting [3]) and in series [1] (inactivated mast cells) was “increased the Annexin V-positive cell count” each time. Further, the cytotoxicity result in the series with NIH3T3 cells and in the series with HaCaT cells was “did not exhibit cytotoxicity” in each case. Moreover, the “expression level of Bcl2” value in the series with Bcl2 (setting [3]) and in the series with Bcl2 (inactivated mast cells) was “reduce the expression level of Bcl2” in each case. Also, in series [2], the thermal stability result is recorded as “very excellent thermal stability”. In the series with FcεRI receptor, the “complex formation of FcεRI receptor (gamma sub-chains binding to IgE)” value is “significantly inhibit the complex formation”.

B1: natural semaphorin 3A protein: standard form growth factor (Semaphorin 3A) purchased from NIBSC (UK); human semaphorin 3A, SEQ ID NO: 2 (protein, listed as Homo sapiens)
chain: MGWLTRIVCLFWGVLLTARANYQNGKNNVPRLKLSYKEMLESNNVITFNGLANSSSYHTFLLDEERSRLYVGAKDHIFSFDLVNIKDFQKIVWPVSYTRRDECKWAGKDILKECANFIKVLKAYNQTHLYACGTGAFHPICTYIEIGHHPEDNIFKLENSHFENGRGKSPYDPKLLTASLLIDGELYSGTAADFMGRDFAIFRTLGHHHPIRTEQHDSRWLNDPKFISAHLISESDNPEDDKVYFFFRENAIDGEHSGKATHARIGQICKNDFGGHRSLVNKWTTFLKARLICSVPGPNGIDTHFDELQDVFLMNFKDPKNPVVYGVFTTSSNIFKGSAVCMYSMSDVRRVFLGPYAHRDGPNYQWVPYQGRVPYPRPGTCPSKTFGGFDSTKDLPDDVITFARSHPAMYNPVFPMNNRPIVIKTDVNYQFTQIVVDRVDAEDGQYDVMFIGTDVGTVLKVVSIPKETWYDLEEVLLEEMTVFREPTAISAMELSTKQQQLYIGSTAGVAQLPLHRCDIYGKACAECCLARDPYCAWDGSACSRYFPTAKRRTRRQDIRNGDPLTHCSDLHHDNHHGHSPEERIIYGVENSSTFLECSPKSQRALVYWQFQRRNEERKEEIRVDDHIIRTDQGLLLRSLQQKDSGNYLCHAVEHGFIQTLLKVTLEVIDTEHLEELLHKDDDGDGSKTKEMSNSMTPSQKVWYRDFMQLINHPNLNTMDEFCEQVWKRDRKQRRQRPGHTPGNSNKWKHLQENKKGRNRRTHEFERAPRSV
B1: in series [2], the thermal stability entry is “low stability at the time of storage for a long period of time”.
